Measurements published in patent US20250066328A1, “PARP7 INHIBITORS” (Gilead Sciences, Inc., priority 2023, published 2025).

Tested on: STAT1 (phosphorylated at Tyr701) in NCI-H1373 cells
Experiment: Phospho-STAT1 (Tyr701) LANCE Ultra TR-FRET detection assay in NCI-H1373 cells
Assay type: cell-based
Details: Homo sapiens, NCI-H1373, 48 h, 48 hours incubation, induction of pSTAT1, normalized to 10 uM positive control and DMSO, 4-parameter fit, read-out: NH1373 pSTAT1 EC50
Procedure: Phospho-STAT1 (Tyr701 LANCE Ultra TR-FRET Detection Assay
LANCE Ultra phospho-STAT1 (Tyr701) kits are designed for the detection of phosphorylated STAT1 in cell lysates using a simple, homogeneous LANCE Ultra sandwich assay (Cat. #TRF4028M). This assay is intended for assessing compound induction of endogenous levels of cellular STAT1 (phosphorylated at Tyr701) in NCI-H1373 cells. The NCI-H1373 cells are cultured in RPMI 1640 media containing 10% heat inactivated FBS, GlutaMAX, 1% Penicillin-Streptomycin. An Echo acoustic liquid handler is used to transfer 60 nanoliters of compound dilutions using the Echo Qualified, 384-well polypropylene microplate clear flat bottom source plates into a Greiner (#781080) cell culture microplate. NCI-H1373 cells are seeded into these compound-spotted culture plates at 30,000 cells/well in a 60 uL volume in growth media. The plates are incubated in a 5% CO2 humidified incubator at 37° C. for 48 hours. […] Briefly, […] of supplemented lysis buffer is added to each well and allowed to shake for 1 hour at 400 rpm. Next, 5 ul of remixed antibody solutions (vol/vol) prepared in detection buffer are added to each well and allowed to incubate at room temperature overnight. After spinning the plate down at 300 rpm for 1 min, the plate is read on an EnVision plate reader set up for Eu^3+ Cryptate and fluorescence emission is measured at two different wavelengths (665 nm and 620 nm). The HTRF ratio is then calculated ([…]) for each well to determine the amount of pSTAT1 in the cell lysate, and the data is then normalized to 10 uM (S)-5-((1-(3-oxo-3-(4-(5-(trifluoromethyl)pyrimidin-2-yl)piperazin-1-yl)propoxy)propan-2-yl)amino)-4-(trifluoromethyl)pyridazin-3(2H)-one positive and DMSO negative controls. The values were then plotted as a function of compound concentration and a 4-parameter fit was applied to derive the EC50 values.

Structure (SMILES) | EC50 [nM]
CC(C)(O)c1cnc(-c2cc3ccn(CCCC(COC(F)F)Oc4cn[nH]c(=O)c4C(F)(F)F)c(=O)c3cc2F)nc1 (stereo not drawn) [Example 33, 2-(5-(difluoromethoxy)-4-((6-oxo-5-(trifluoromethyl)-1,6-dihydropyridazin-4-yl)oxy)pentyl)-7-fluoro-6-(5-(2-hydroxypropan-2-yl)pyrimidin-2-yl)isoquinolin-1(2H)-one] | 23.3
C[C@@H](CC(F)Cn1cnc2cc(-c3ncc(C(F)(F)F)cn3)c(F)cc2c1=O)Oc1cn[nH]c(=O)c1C(F)(F)F (stereo partly drawn) [Example 36] | 10.8
C[C@@H](CC(F)Cn1ccc2cc(-c3ncc(C(C)(C)O)cn3)c(F)cc2c1=O)Oc1cn[nH]c(=O)c1C(F)(F)F (stereo partly drawn) [Example 37] | 4.11
C[C@@H](CC(F)Cn1cnc2cc(-c3ncc(C(C)(C)O)cn3)c(F)cc2c1=O)Oc1cn[nH]c(=O)c1C(F)(F)F (stereo partly drawn) [Example 38] | 42.4
C[C@@H](C[C@@H](F)Cn1cnc2cc(-c3ncc(C(F)(F)F)cn3)c(F)cc2c1=O)Oc1cn[nH]c(=O)c1C(F)(F)F [Example 39] | 1.49
COc1cnc(-c2cc3ccn(C[C@H](F)C[C@H](C)Oc4cn[nH]c(=O)c4C(F)(F)F)c(=O)c3cc2F)nc1N [Example 40] | 14.7
C[C@@H](C[C@@H](F)Cn1ccc2cc(-c3ncc(S(C)(=O)=O)cn3)c(F)cc2c1=O)Oc1cn[nH]c(=O)c1C(F)(F)F [Example 41] | 402
C[C@@H](C[C@@H](F)Cn1ccc2cc(-c3ncc(C(F)F)c(N)n3)c(F)c(F)c2c1=O)Oc1cn[nH]c(=O)c1C(F)(F)F [Example 42] | 0.836
COc1cnc(-c2cc3ccn(C[C@H](F)C[C@H](C)Oc4cn[nH]c(=O)c4C(F)(F)F)c(=O)c3c(F)c2F)nc1 [Example 44] | 0.375
COc1cnc(-c2cc3ccn(C[C@H](F)C[C@H](C)Oc4cn[nH]c(=O)c4C(F)(F)F)c(=O)c3cc2F)nc1 [Example 45] | 1.01
C[C@@H](C[C@@H](F)Cn1ccc2cc(-c3ncc(C(C)(F)F)cn3)c(F)c(F)c2c1=O)Oc1cn[nH]c(=O)c1C(F)(F)F [Example 46] | 0.667
C[C@@H](C[C@@H](F)Cn1ccc2cc(-c3ncc(C(F)(F)F)cn3)c(F)c(F)c2c1=O)Oc1cn[nH]c(=O)c1C(F)(F)F [Example 47] | 0.814
C[C@@H](C[C@@H](F)Cn1ccc2cc(-c3ncc(C(F)F)cn3)c(F)cc2c1=O)Oc1cn[nH]c(=O)c1C(F)(F)F [Example 48] | 1.05
C[C@@H](C[C@@H](F)Cn1ccc2cc(-c3ncc(C(F)F)cn3)c(F)c(F)c2c1=O)Oc1cn[nH]c(=O)c1C(F)(F)F [Example 50] | 0.46
C[C@@H](C[C@@H](F)Cn1cc(F)c2cc(-c3ncc(C(F)F)cn3)c(F)cc2c1=O)Oc1cn[nH]c(=O)c1C(F)(F)F [Example 52] | 67.9
COc1cnc(-c2cc3c(F)cn(C[C@H](F)C[C@H](C)Oc4cn[nH]c(=O)c4C(F)(F)F)c(=O)c3cc2F)nc1 [Example 53] | 202
C[C@@H](C[C@@H](F)Cn1cc(F)c2cc(-c3ncc(C(F)F)c(N)n3)c(F)cc2c1=O)Oc1cn[nH]c(=O)c1C(F)(F)F [Example 54] | 23.7
C[C@@H](C[C@@H](F)Cn1cc(F)c2cc(-c3ncc(C(F)(F)F)cn3)c(F)cc2c1=O)Oc1cn[nH]c(=O)c1C(F)(F)F [Example 55] | 135
C[C@@H](C[C@H](F)Cn1cnc2cc(-c3ncc(C(F)(F)F)cn3)c(F)cc2c1=O)Oc1cn[nH]c(=O)c1C(F)(F)F [Example 58] | 35.3
COc1cnc(-c2cc3ccn(C[C@@H](F)C[C@H](C)Oc4cn[nH]c(=O)c4C(F)(F)F)c(=O)c3cc2F)nc1N [Example 59] | 1.21
C[C@@H](C[C@H](F)Cn1ccc2cc(-c3ncc(S(C)(=O)=O)cn3)c(F)cc2c1=O)Oc1cn[nH]c(=O)c1C(F)(F)F [Example 60] | 10.2
C[C@@H](C[C@H](F)Cn1cc(F)c2cc(-c3ncc(C(F)F)cn3)c(F)cc2c1=O)Oc1cn[nH]c(=O)c1C(F)(F)F [Example 62] | 1.69
COc1cnc(-c2cc3c(F)cn(C[C@@H](F)C[C@H](C)Oc4cn[nH]c(=O)c4C(F)(F)F)c(=O)c3cc2F)nc1 [Example 63] | 2.05
C[C@@H](C[C@H](F)Cn1cc(F)c2cc(-c3ncc(C(F)F)c(N)n3)c(F)cc2c1=O)Oc1cn[nH]c(=O)c1C(F)(F)F [Example 64] | 0.42

Structure (SMILES) | EC50 [nM]
C[C@@H](C[C@H](F)Cn1cc(F)c2cc(-c3ncc(C(F)(F)F)cn3)c(F)cc2c1=O)Oc1cn[nH]c(=O)c1C(F)(F)F [Example 65] | 2.85
C[C@@H](C[C@H](F)Cn1cc(F)c2cc(-c3ncc(C(C)(C)O)cn3)c(F)cc2c1=O)Oc1cn[nH]c(=O)c1C(F)(F)F [Example 66] | 91.6
COc1cnc(-c2cc3ncn(C[C@@H](F)C[C@H](C)Oc4cn[nH]c(=O)c4C(F)(F)F)c(=O)c3cc2F)nc1 [Example 67] | 3.44
C[C@@H](C[C@@H](F)Cn1cc(Br)c2cc(-c3ncc(C(C)(C)O)cn3)c(F)cc2c1=O)Oc1cn[nH]c(=O)c1C(F)(F)F [Example 68, 4-bromo-7-fluoro-2-((2R,4S)-2-fluoro-4-((6-oxo-5-(trifluoromethyl)-1,6-dihydropyridazin-4-yl)oxy)pentyl)-6-(5-(2-hydroxypropan-2-yl)pyrimidin-2-yl)isoquinolin-1(2H)-one] | 3.7
C[C@@H](C[C@@H](F)Cn1cnc2cc(-c3ncc(C(F)F)c(N)n3)c(F)cc2c1=O)Nc1cn[nH]c(=O)c1C(F)(F)F [Example 69] | 19
C[C@@H](C[C@@H](F)Cn1cnc2cc(-c3ncc(C(F)F)cn3)c(F)cc2c1=O)Nc1cn[nH]c(=O)c1C(F)(F)F [Example 70] | 3.31
C[C@@H](C[C@@H](F)Cn1cnc2cc(-c3ncc(C(F)(F)F)cn3)c(F)cc2c1=O)Nc1cn[nH]c(=O)c1C(F)(F)F [Example 71] | 2.17
C[C@@H](C[C@@H](F)Cn1ccc2cc(-c3cc[nH]n3)c(F)cc2c1=O)Nc1cn[nH]c(=O)c1C(F)(F)F [Example 73] | 136
C[C@@H](C[C@@H](F)Cn1ccc2cc(-c3ccccn3)c(F)cc2c1=O)Nc1cn[nH]c(=O)c1C(F)(F)F [Example 74] | 6.56
C[C@@H](C[C@@H](F)Cn1ccc2cc(-c3ncc(C(F)(F)F)cc3F)c(F)cc2c1=O)Nc1cn[nH]c(=O)c1C(F)(F)F [Example 75] | 4.51
C[C@@H](C[C@@H](F)Cn1ccc2cc(-c3ccc(C(F)(F)F)cn3)c(F)cc2c1=O)Nc1cn[nH]c(=O)c1C(F)(F)F [Example 76] | 2.59
C[C@@H](C[C@@H](F)Cn1ccc2cc(-c3ncc(OC(F)(F)F)cn3)c(F)cc2c1=O)Nc1cn[nH]c(=O)c1C(F)(F)F [Example 77] | 2.5
C[C@@H](C[C@@H](F)Cn1ccc2cc(-c3ncc(OCC#N)cn3)c(F)cc2c1=O)Nc1cn[nH]c(=O)c1C(F)(F)F [Example 78] | 192
C[C@@H](C[C@@H](F)Cn1ccc2cc(-c3ncc(C(O)C(F)(F)F)cn3)c(F)cc2c1=O)Nc1cn[nH]c(=O)c1C(F)(F)F (stereo partly drawn) [Example 79] | 5.05
C[C@@H](C[C@@H](F)Cn1ccc2cc(-c3ncc([C@@H](O)C(F)F)cn3)c(F)cc2c1=O)Nc1cn[nH]c(=O)c1C(F)(F)F [Example 80] | 7.89
C[C@@H](C[C@@H](F)Cn1ccc2cc(-c3ncc([C@H](O)C(F)F)cn3)c(F)cc2c1=O)Nc1cn[nH]c(=O)c1C(F)(F)F [Example 81] | 5.83
C[C@@H](C[C@@H](F)Cn1ccc2cc(-c3ncc(OC(F)(F)CO)cn3)c(F)cc2c1=O)Nc1cn[nH]c(=O)c1C(F)(F)F [Example 82] | 2.15
C[C@@H](C[C@@H](F)Cn1ccc2cc(-c3ncc(C(C)(O)C(F)(F)F)cn3)c(F)cc2c1=O)Nc1cn[nH]c(=O)c1C(F)(F)F (stereo partly drawn) [Example 84] | 2.79
C[C@@H](C[C@@H](F)Cn1ccc2cc(-c3ncc(C(F)(F)CO)cn3)c(F)cc2c1=O)Nc1cn[nH]c(=O)c1C(F)(F)F [Example 85] | 4.39
C[C@@H](C[C@@H](F)Cn1ccc2cc(-c3ncc([C@@](C)(O)C(F)F)cn3)c(F)cc2c1=O)Nc1cn[nH]c(=O)c1C(F)(F)F [Example 86] | 10.1
C[C@@H](C[C@@H](F)Cn1ccc2cc(-c3ncc([C@](C)(O)C(F)F)cn3)c(F)cc2c1=O)Nc1cn[nH]c(=O)c1C(F)(F)F [Example 87] | 5.36
C[C@@H](C[C@@H](F)Cn1ccc2cc(-c3ncc(C(C)(C)C)cn3)c(F)cc2c1=O)Nc1cn[nH]c(=O)c1C(F)(F)F [Example 88] | 1.29
C[C@@H](C[C@@H](F)Cn1ccc2cc(-c3ncc4c(n3)NC(=O)C4(C)C)c(F)cc2c1=O)Nc1cn[nH]c(=O)c1C(F)(F)F [Example 89] | 12
C[C@@H](C[C@@H](F)Cn1ccc2cc(-c3ncc4c(n3)COC4(C)C)c(F)cc2c1=O)Nc1cn[nH]c(=O)c1C(F)(F)F [Example 90] | 4.33
